Results from US20260083708A1, “IL-17 MODULATORS AND USES THEREOF” (NNOCARE PHARMA INC., priority 2024, published 2026).
pIC50: −log10 of the molar value.

Key:
[1] = test system: IL-17AA-induced IL-17 signaling pathway; test: Inhibition of IL-17AA-induced IL-17 signaling pathway in HEK-Blue IL-17 reporter cells (SEAP); assay type: cell-based; details: Homo sapiens; HEK-Blue IL-17 cells, IL-17AA 2.5 ng/mL, 20 hours; read-out: IC50 for Inhibiting IL-AA Signaling
Procedure, shortened: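 HEK-Blue IL-17 cells (HEK293 expressing human IL-17RA/RC, ACT1 and NF-κB/AP-1-driven SEAP), 10,000/well, pre-incubated with compound (serial dilution from 10 μM) for 1 h at 37 °C, then stimulated with IL-17AA at 2.5 ng/mL final for 20 h. SEAP in supernatant read with Quanti-Blue at 620 nm; IC50 by 4-parameter fit.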

[2] = test system: IL-17AF-induced IL-17 signaling pathway; test: Inhibition of IL-17AF-induced IL-17 signaling pathway; assay type: cell-based; details: Homo sapiens; IL-17AF used instead of IL-17AA; read-out: IC50 for Inhibiting IL-AF Signaling
Procedure, shortened: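 HEK293-derived HEK-Blue IL-17 cells (IL-17RA/RC, ACT1, NF-κB/AP-1-driven SEAP) preincubated 1 hour at 37° C with serially diluted compound from 10 μM, then stimulated with IL-17AF for 20 hours. SEAP read colorimetrically at 620 nm; IC50 from 4-parameter fit of % inhibition.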

IL-17AA and IL-17RA = target: T1, IL-17AA and IL-17RA (Homo sapiens, UniProt Q16552); test: Competitive inhibition of human IL-17AA and IL-17RA binding (HTRF); details: recombinant IL-17AA (His-tag) and IL-17RA (hFc-tag); read-out: IC50 for Inhibiting IL-AA/IL-RA Binding
T1 construct: purchased Sino Biological 12047-H07B (IL-17AA); 10895-H02H (IL-17RA)
T1 sequence (Q16552 24-155): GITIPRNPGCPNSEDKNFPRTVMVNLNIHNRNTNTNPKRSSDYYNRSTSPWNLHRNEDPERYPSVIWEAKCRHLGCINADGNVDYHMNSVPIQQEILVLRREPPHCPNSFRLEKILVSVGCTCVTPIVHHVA
Procedure, shortened: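 His-IL-17AA (1 nM) premixed 1 h with anti-His-Tb (0.4 nM), and Fc-IL-17RA (1 nM) with anti-IgG-d2 (1 μg/mL); these are pre-mix levels. Compounds, diluted from 10 μM, preincubated 2 h RT with IL-17AA mix; IL-17RA mix then added, 20 min. 665/615 ratio vs no-compound and no-IL-17AA controls; IC50 by 4-parameter fit.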

CCC(=O)N[C@@H](c1ncccc1CC1CC1)[C@@H](C)c1ccc(NC(=O)[C@@H](NC(=O)c2ccnn2CC)C(C2CC2)C2CC2)c(F)c1 [Compound 82, N-((S)-1,1-dicyclopropyl-3-((4-((1R,2S)-1-(3-(cyclopropylmethyl)pyridin-2-yl)-1-propionamidopropan-2-yl)-2-fluorophenyl)amino)-3-oxopropan-2-yl)-1-ethyl-1H-pyrazole-5-carboxamide]
pIC50 [1]: 8.00
pIC50 [2]: 8.08
pIC50 (IL-17AA and IL-17RA): 8.25

CCn1nccc1C(=O)N[C@H](C(=O)Nc1ccc([C@H](C)[C@@H](NC(=O)COC)c2nnc(C)n2CC2CC2)cc1F)C(C1CC1)C1CC1 [Compound 18, N-((S)-1,1-dicyclopropyl-3-((4-((1R,2S)-1-(4-(cyclopropylmethyl)-5-methyl-4H-1,2,4-triazol-3-yl)-1-(2-methoxyacetamido)propan-2-yl)-2-fluorophenyl)amino)-3-oxopropan-2-yl)-1-ethyl-1H-pyrazole-5-carboxamide]
pIC50 [1]: 7.85
pIC50 [2]: 7.29
pIC50 (IL-17AA and IL-17RA): 7.77

COCC(=O)N[C@@H](c1nncn1CC1CC1)[C@@H](C)c1ccc(NC(=O)[C@@H](NC(=O)COc2cc(C(F)F)ccn2)C(C2CC2)C2CC2)c(F)c1 [Compound 13, (S)-3,3-dicyclopropyl-N-(4-((1R,2S)-1-(4-(cyclopropylmethyl)-4H-1,2,4-triazol-3-yl)-1-(2-methoxyacetamido)propan-2-yl)-2-fluorophenyl)-2-(2-((4-(difluoromethyl)pyridin-2-yl)oxy)acetamido)propanamide]
pIC50 [1]: 7.17
pIC50 [2]: 6.67
pIC50 (IL-17AA and IL-17RA): 7.40

CCn1nccc1C(=O)N[C@H](C(=O)Nc1ccc([C@H](C)[C@@H](NC(=O)COC)c2nnc(C)s2)cc1F)C(C1CC1)C1CC1 [Compound 17, N-((S)-1,1-dicyclopropyl-3-((2-fluoro-4-((1R,2S)-1-(2-methoxyacetamido)-1-(5-methyl-1,3,4-thiadiazol-2-yl)propan-2-yl)phenyl)amino)-3-oxopropan-2-yl)-1-ethyl-1H-pyrazole-5-carboxamide]
pIC50 [1]: 7.07
pIC50 [2]: 6.60
pIC50 (IL-17AA and IL-17RA): 6.35

COCC(=O)N[C@@H](c1nncn1CC1CC1)[C@@H](C)c1ccc(NC(=O)[C@@H](NC(=O)c2ccnn2C(C)C)C(C2CC2)C2CC2)c(F)c1 [Compound 4, N-((S)-1,1-dicyclopropyl-3-((4-((1R,2S)-1-(4-(cyclopropylmethyl)-4H-1,2,4-triazol-3-yl)-1-(2-methoxyacetamido)propan-2-yl)-2-fluorophenyl)amino)-3-oxopropan-2-yl)-1-isopropyl-1H-pyrazole-5-carboxamide]
pIC50 [1]: 7.77
pIC50 [2]: 7.70
pIC50 (IL-17AA and IL-17RA): 8.00

CC(=O)N[C@@H](c1nncn1CC1CC1)[C@@H](C)c1ccc(NC(=O)[C@@H](NC(=O)c2ccnn2C(C)C)C(C2CC2)C2CC2)c(F)c1 [Compound 22, N-((S)-1-((4-((1R,2S)-1-acetamido-1-(4-(cyclopropylmethyl)-4H-1,2,4-triazol-3-yl)propan-2-yl)-2-fluorophenyl)amino)-3,3-dicyclopropyl-1-oxopropan-2-yl)-1-isopropyl-1H-pyrazole-5-carboxamide]
pIC50 [1]: 7.55
pIC50 [2]: 7.34
pIC50 (IL-17AA and IL-17RA): 7.89

COCC(=O)N[C@@H](c1ncnn1CCN(C)C)[C@@H](C)c1ccc(NC(=O)[C@@H](NC(=O)c2nonc2C)C(C2CC2)C2CC2)c(F)c1 [Compound 61, N-((S)-1,1-dicyclopropyl-3-((4-((1R,2S)-1-(1-(2-(dimethylamino)ethyl)-1H-1,2,4-triazol-5-yl)-1-(2-methoxyacetamido)propan-2-yl)-2-fluorophenyl)amino)-3-oxopropan-2-yl)-4-methyl-1,2,5-oxadiazole-3-carboxamide]
pIC50 [1]: 7.41
pIC50 [2]: 7.13
pIC50 (IL-17AA and IL-17RA): 7.92

CCn1nccc1C(=O)N[C@H](C(=O)Nc1ccc([C@H](C)[C@@H](NC(=O)COC)c2ncccc2CC2CC2)cc1F)C(C1CC1)C1CC1 [Compound 28, N-((S)-1,1-dicyclopropyl-3-((4-((1R,2S)-1-(3-(cyclopropylmethyl)pyridin-2-yl)-1-(2-methoxyacetamido)propan-2-yl)-2-fluorophenyl)amino)-3-oxopropan-2-yl)-1-ethyl-1H-pyrazole-5-carboxamide]
pIC50 [1]: 8.08
pIC50 [2]: 7.62
pIC50 (IL-17AA and IL-17RA): 8.11

CCn1nccc1C(=O)N[C@H](C(=O)Nc1ccc([C@H](C)[C@@H](NC(=O)COC)c2nnc(C3CCN3C)s2)cc1F)C(C1CC1)C1CC1 (stereo partly drawn) [Compound 59, N-((2S)-1,1-dicyclopropyl-3-((2-fluoro-4-((1R,2S)-1-(2-methoxyacetamido)-1-(5-(1-methylazetidin-2-yl)-1,3,4-thiadiazol-2-yl)propan-2-yl)phenyl)amino)-3-oxopropan-2-yl)-1-ethyl-1H-pyrazole-5-carboxamide]
pIC50 [1]: 6.02
pIC50 [2]: 5.81
pIC50 (IL-17AA and IL-17RA): 6.63

CCn1nccc1C(=O)N[C@H](C(=O)Nc1ccc([C@H](C)[C@@H](NC(=O)COC)c2ncnn2CCOC)cc1F)C(C1CC1)C1CC1 [Compound 40]
pIC50 [1]: 8.59
pIC50 [2]: 8.07
pIC50 (IL-17AA and IL-17RA): 8.13

CCn1nccc1C(=O)N[C@H](C(=O)Nc1ccc([C@H](C)[C@H](NC(=O)COC)c2nncn2CC2CC2)cc1F)C(C1CC1)C1CC1 [Compound 37, N-((S)-1,1-dicyclopropyl-3-((4-((1S,2S)-1-(4-(cyclopropylmethyl)-4H-1,2,4-triazol-3-yl)-1-(2-methoxyacetamido)propan-2-yl)-2-fluorophenyl)amino)-3-oxopropan-2-yl)-1-ethyl-1H-pyrazole-5-carboxamide]
pIC50 [1]: 7.13
pIC50 [2]: 6.63
pIC50 (IL-17AA and IL-17RA): 6.90

CCc1nonc1C(=O)N[C@H](C(=O)Nc1ccc([C@H](C)[C@@H](NC(=O)COC)c2nnnn2CC2CC2)cc1F)C(C1CC1)C1CC1 [Compound 29, N-((S)-1,1-dicyclopropyl-3-((4-((1R,2S)-1-(1-(cyclopropylmethyl)-1H-tetrazol-5-yl)-1-(2-methoxyacetamido)propan-2-yl)-2-fluorophenyl)amino)-3-oxopropan-2-yl)-4-ethyl-1,2,5-oxadiazole-3-carboxamide]
pIC50 [1]: 8.70
pIC50 [2]: 8.49
pIC50 (IL-17AA and IL-17RA): 9.05

CCC(=O)N[C@@H](c1ncnn1CC1CC1)[C@@H](C)c1ccc(NC(=O)[C@@H](NC(=O)c2ccnn2CC)C2CCC3(CC2)CC(F)(F)C3)c(F)c1 [Compound 78, N-((S)-2-((4-((1R,2S)-1-(1-(cyclopropylmethyl)-1H-1,2,4-triazol-5-yl)-1-propionamidopropan-2-yl)-2-fluorophenyl)amino)-1-(2,2-difluorospiro[3.5]nonan-7-yl)-2-oxoethyl)-1-ethyl-1H-pyrazole-5-carboxamide]
pIC50 [1]: 6.42
pIC50 [2]: 6.29
pIC50 (IL-17AA and IL-17RA): 7.32

CCCn1cnc([C@H](NC(=O)COC)[C@@H](C)c2ccc(NC(=O)[C@@H](NC(=O)c3ccnn3CC)C(C3CC3)C3CC3)c(F)c2)n1 [Compound 30, N-((S)-1,1-dicyclopropyl-3-((2-fluoro-4-((1R,2S)-1-(2-methoxyacetamido)-1-(1-propyl-1H-1,2,4-triazol-3-yl)propan-2-yl)phenyl)amino)-3-oxopropan-2-yl)-1-ethyl-1H-pyrazole-5-carboxamide]
pIC50 [1]: 7.49
pIC50 [2]: 7.18
pIC50 (IL-17AA and IL-17RA): 7.64

CCn1nccc1C(=O)N[C@H](C(=O)Nc1ccc([C@H](C)[C@@H](NC(=O)[C@H](C)OC)c2nncn2CC2CC2)cc1F)C(C1CC1)C1CC1 [Compound 16, N-((S)-1,1-dicyclopropyl-3-((4-((1R,2S)-1-(4-(cyclopropylmethyl)-4H-1,2,4-triazol-3-yl)-1-((S)-2-methoxypropanamido)propan-2-yl)-2-fluorophenyl)amino)-3-oxopropan-2-yl)-1-ethyl-1H-pyrazole-5-carboxamide]
pIC50 [1]: 8.20
pIC50 [2]: 7.89
pIC50 (IL-17AA and IL-17RA): 8.20

[2H]C([2H])([2H])OCC(=O)N[C@@H](c1ncnn1CC1CC1)[C@@H](C)c1ccc(NC(=O)[C@@H](NC(=O)c2ccnn2CC)C(C2CC2)C2CC2)c(F)c1 [Compound 68, N-((S)-1,1-dicyclopropyl-3-((4-((1R,2S)-1-(1-(cyclopropylmethyl)-1H-1,2,4-triazol-5-yl)-1-(2-(methoxy-d3)acetamido)propan-2-yl)-2-fluorophenyl)amino)-3-oxopropan-2-yl)-1-ethyl-1H-pyrazole-5-carboxamide]
pIC50 [1]: 8.25
pIC50 [2]: 8.19
pIC50 (IL-17AA and IL-17RA): 8.35
